Laboratory results reported in PubChem BioAssay (NCI).
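Results reflect a 48-hour exposure of cells in 96-well plates to compound at five concentrations. The concentration for 50% growth inhibition is given as GI50. TGI denotes the concentration required for complete inhibition of growth.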

Assays:
Experiment in all cases: DTP human tumour cell line panel, 48 h
A498 renal = tested on: A498 renal
HCC-2998 colon = tested on: HCC-2998 colon
HCT-116 colon = tested on: HCT-116 colon
MCF7 breast = tested on: MCF7 breast
NCI-H460 lung = tested on: NCI-H460 lung
RPMI-8226 leukemia = tested on: RPMI-8226 leukemia
SF-539 CNS = tested on: SF-539 CNS
OVCAR-5 ovarian = tested on: OVCAR-5 ovarian
SK-MEL-2 melanoma = tested on: SK-MEL-2 melanoma
SNB-75 CNS = tested on: SNB-75 CNS

| Compound | TGI (A498 renal) [µM] | TGI (HCC-2998 colon) [µM] | TGI (HCT-116 colon) [µM] | TGI (MCF7 breast) [µM] | TGI (NCI-H460 lung) [µM] | TGI (RPMI-8226 leukemia) [µM] | TGI (SF-539 CNS) [µM] | TGI (OVCAR-5 ovarian) [µM] | TGI (SK-MEL-2 melanoma) [µM] | TGI (SNB-75 CNS) [µM] | GI50 (A498 renal) [µM] | GI50 (HCC-2998 colon) [µM] | GI50 (HCT-116 colon) [µM] | GI50 (MCF7 breast) [µM] | GI50 (NCI-H460 lung) [µM] | GI50 (OVCAR-5 ovarian) [µM] | GI50 (RPMI-8226 leukemia) [µM] | GI50 (SF-539 CNS) [µM] | GI50 (SK-MEL-2 melanoma) [µM] | GI50 (SNB-75 CNS) [µM] |
| --- | --- | --- | --- | --- | --- | --- | --- | --- | --- | --- | --- | --- | --- | --- | --- | --- | --- | --- | --- | --- |
| O=C(C(Cl)=C(Nc1ccccc1)Nc1ccccc1)C(Cl)Cl | 74.5 | 37.3 | 60.2 | 62.5 | > 100 | 78.9 | > 100 |  |  |  |  |  |  |  |  |  |  |  |  |  |
| N#Cc1c(C#N)c(-c2ccco2)n(/N=C/c2ccco2)c1N | > 100 | > 100 | > 100 | > 100 | > 100 | > 100 | > 100 | > 100 | > 100 | 40 |  |  |  |  |  |  |  |  |  |  |
| CN(C)CCCNc1ccc2nnn3c4ccc([N+](=O)[O-])cc4c(=O)c1c23 | 6.33 | 10.4 | 12.3 | 8.08 | 1.57 | 7.31 | 14.2 | 9.59 | 15 | 8.55 |  |  |  |  |  |  |  |  |  |  |
| Clc1ccc(CCN2CCN(CCCc3ccccc3)CC2)cc1Cl | 30 | 31.3 | 28.4 | 33.8 | 33.5 | 55.2 | 32.4 | 29.9 | 36.4 |  |  |  |  |  |  |  |  |  |  |  |
| Clc1ccc(CCn2ccc3ccccc32)c(Cl)c1 | > 100 | > 100 | > 100 | > 100 | > 100 | > 100 | > 100 | > 100 | > 100 | > 100 |  |  |  |  |  |  |  |  |  |  |
| CN(C)CCCn1c2c(c3ccncc3c1=O)C(=O)c1ccccc1-2 | 20 | 5.31 | 21.8 | 14 | 3.63 | 7.62 | 5.95 | 9.25 | 6.96 | 5.88 | 2.15 | 1.38 | 0.382 | 0.333 | 0.438 | 1.82 | 1.72 | 0.714 | 2.18 | 1.02 |
| CC(=O)CC(=O)Nn1c(-c2cccs2)nc2ccc(I)cc2c1=O | 43.1 | > 67.4 | > 100 | > 100 | > 100 | > 100 | 34.4 | > 100 | > 100 | > 100 | 19.9 |  |  |  |  |  |  | 13.8 |  |  |
| O=C1c2c(ccc3c2CCCC3)CC12Cc1ccccc1C2 | 77.5 | > 74.8 | 26.1 | > 76.6 | > 47.1 | 45.5 | > 75.3 | > 67.6 | 39.6 | > 100 |  |  |  |  |  |  |  |  |  |  |
| CCC1OC(=O)C(C)C(OC2CC(C)(O)C(O)C(C)O2)C(C)C(O)C(C)(O)CC(C)C(=O)C(C)C(O)C1C (stereo not given) | > 300 | > 300 | > 300 | > 300 | > 300 | > 300 | > 300 | > 300 | > 300 | > 300 |  |  |  |  |  |  |  |  |  |  |
| Fc1ccccc1N=c1oc2ccc(Br)cc2cc1-c1nc2ccccc2[nH]1 | 9.69 | > 35.2 | > 31.8 | > 100 | > 76.6 | > 85.6 | 4.58 | > 62.8 | 26.6 | 4.74 |  |  |  |  |  |  |  |  |  |  |
| COc1ccc(N=Nc2ccc3oc(=O)c(C(=O)Nc4ccc(OC)cc4)cc3c2)cc1 | 9.17 | 45.3 | 23.8 | 38 | 79.4 | 67.2 | 22.8 | 50.6 | 39.5 | 54.3 |  |  |  |  |  |  |  |  |  |  |
| COc1cc(OC)cc(N(C)Cc2cnc3nc(N)nc(N)c3c2C)c1 | > 100 | > 100 | > 100 | > 100 | > 100 | > 100 | 4.96 | > 100 | > 100 | > 100 |  |  |  |  |  |  |  |  |  |  |
| CC(C)(C)OC(=O)N(CCCN)CCCCN(CCCN)C(=O)OC(C)(C)C | > 100 | > 100 | > 100 | > 100 | > 100 | > 100 | > 100 | > 100 | > 100 | > 100 |  |  |  |  |  |  |  |  |  |  |
| CCOc1c(OC)cc(CNNc2nccs2)cc1OC | > 100 | > 100 | > 100 | > 100 | > 100 | > 100 | > 100 | > 100 |  | > 100 |  |  |  |  |  |  |  |  |  |  |
| CN1CCN(c2nc3c(c(=O)n(C)c(=O)n3C)n2C)CC1 | > 100 | > 100 | > 100 | > 100 | > 100 | > 100 |  | > 100 | > 100 | > 100 |  |  |  |  |  |  |  |  |  |  |
| O=C(O)CCCCCNC(=O)CCC(CN(CC(=O)OCc1ccccc1)CC(=O)OCc1ccccc1)N(CC(=O)OCc1ccccc1)CC(=O)OCc1ccccc1 (stereo not given) | 32.2 | 30.5 | 31.2 | 36.2 | 55.7 | 31.9 | 37.9 | 32.6 | 32 |  |  |  |  |  |  |  |  |  |  |  |
